In patent US8431563B2 (priority 2010, dated 2013) one finds EC50 data, which are given here for 21 molecules.

SMILES strings stand for the structures. Structures can show the parent of a compound that is named as a salt.

Experiment [1] addresses T1, GKRP (Glucokinase Regulatory Protein) with human His-hepatic GK (Homo sapiens, UniProt Q14397).
T1 sequence (Q14397 1-625): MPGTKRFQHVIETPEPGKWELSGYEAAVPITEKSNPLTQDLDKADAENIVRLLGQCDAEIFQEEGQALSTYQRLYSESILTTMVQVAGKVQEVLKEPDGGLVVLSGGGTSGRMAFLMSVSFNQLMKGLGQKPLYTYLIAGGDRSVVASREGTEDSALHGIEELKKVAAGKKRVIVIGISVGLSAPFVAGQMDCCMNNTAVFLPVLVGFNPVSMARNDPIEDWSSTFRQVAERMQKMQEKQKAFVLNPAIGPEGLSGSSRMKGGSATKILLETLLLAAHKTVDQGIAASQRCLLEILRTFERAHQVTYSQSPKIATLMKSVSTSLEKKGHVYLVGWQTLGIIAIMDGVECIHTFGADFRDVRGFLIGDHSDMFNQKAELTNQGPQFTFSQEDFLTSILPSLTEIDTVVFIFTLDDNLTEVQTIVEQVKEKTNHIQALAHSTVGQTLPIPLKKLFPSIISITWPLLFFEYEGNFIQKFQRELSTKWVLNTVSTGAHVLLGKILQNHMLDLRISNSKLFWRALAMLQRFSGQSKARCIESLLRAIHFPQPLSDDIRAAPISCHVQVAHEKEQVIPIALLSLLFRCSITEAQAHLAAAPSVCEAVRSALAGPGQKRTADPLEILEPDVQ
The experiment in a line: GKRP LC MS/MS Biochemical Assay. Conditions: 13C-glucose-6-phosphate formation, 1 μM GKRP (10×), 30 nM GK (5×). Here is the method:
GKRP LC MS/MS Biochemical Assay
(§1) This assay is used to directly measure the formation of ^13C-glucose-6-phosphate from ^13C-glucose by liquid chromatography-mass spectrometry (LC MS/MS). Begin by preparing the following solutions: Compound Buffer (CB): 50 mM Tris, pH 7.5/4 mM MgCl2/6% DMSO/fresh 10 mM DTT from 1M frozen stock. Enzyme Buffer (EB): 50 mM Tris, pH 7.5/4 mM MgCl2/6% DMSO/fresh 0.1% BSA/fresh 0.01% Brij-35 (10% BSA and 1% Brij-35 stock). GK (Glucokinase) Working Stock (5×): Dilute human His-hepatic GK to 30 nM in EB buffer. […] After 30 minutes add 10 μl of GK Working Stock (5×). Re-seal the plate and incubate for another 30 minutes at room temperature while mixing. After the second 30 minutes, stop the reaction by the addition of 50 μl of 100% acetonitrile, seal, and mix for 5-10 minutes. Run 10 μl of this sample through the LC MS/MS (API 3200, Applied Biosystems Inc., Carlsbad, Calif.).

The target of experiment [2] is T1, GKRP (Glucokinase Regulatory Protein) with human His-hepatic GK. In words: GKRP NADPH Coupled Assay. Conditions: indirect measure of glucose-6-phosphate, fluorescence, 1 μM GKRP (10×), 20 nM GK (5×). The format is biochemical. Here is the method: as §1
This assay is used as an indirect measure of glucose-6-phosphate (G6P) formed from glucose due to the enzymatic activity of glucokinase. Assay format is the same as for GKRP LC MS/MS Biochemical Assay with the following exceptions. GK Working Stock (5×): Dilute human His-hepatic GK to 20 nM in EB buffer. Stop & Detection Reagent (2×): Dilute β-nicotinamide adenine dinucleotide phosphate sodium salt (β-NADP) (Aldrich-Sigma, St. Louis, Mo.) to 2 mM from 100 mM stock (stock in 10 mM Tris, pH 9.2) and dilute glucose-6-phosphate dehydrogenase (Aldrich-Sigma, St. Louis, Mo.) to 0.04 Unit/μl from 10 Unit/μl (stock in 10 mM Tris pH 7.5/0.05% Brij-35) in 0.2 M Tris, pH 9.2/8% DMSO. After the initial 30 minute incubation add 10 μl of 20 nM GK diluted in EB (5×). Re-seal the plate and incubate for another 1 hour at room temperature while mixing. After 1 hour remove the seal and add 50 μl of Stop & Detection Reagent and incubate for 5 minutes at room temperature while mixing.

As to `CC(O)(c1ccc(N2CCN(S(=O)(=O)c3cccs3)CC2CC2CCCCC2)cc1)C(F)(F)F` (mixture of isomers) [Example 58, 2-(4-(2-(cyclohexylmethyl)-4-(2-thiophenylsulfonyl)-1-piperazinyl)phenyl)-1,1,1-trifluoro-2-propanol], the figures for the EC50 in experiment [1] (read-out: GK-GKRP EC50 (LC MS/MS)) and in experiment [2] (read-out: GK-GKRP EC50 (NADPH-coupled)) were 1320 nM and 1000 nM, respectively.
Regarding `CC(O)(c1ccc(N2CCN(S(=O)(=O)c3cccs3)CC2COCc2cccnc2)cc1)C(F)(F)F` (mixture of isomers) [Example 59, 1,1,1-trifluoro-2-(4-(2-((3-pyridinylmethoxy)methyl)-4-(2-thiophenylsulfonyl)-1-piperazinyl)phenyl)-2-propanol], the EC50 in experiment [1] (GK-GKRP EC50 (LC MS/MS)) and in experiment [2] (GK-GKRP EC50 (NADPH-coupled)) was 4930 nM throughout.
Consider `CC(O)(c1ccc(N2CCN(S(=O)(=O)c3cccs3)CC2CN2CCOCC2)cc1)C(F)(F)F` (mixture of isomers) [Example 61, 1,1,1-trifluoro-2-(4-(2-(4-morpholinylmethyl)-4-(2-thiophenylsulfonyl)-1-piperazinyl)phenyl)-2-propanol], for which the EC50 is 355 nM in experiment [1] (GK-GKRP EC50 (LC MS/MS)) and 230 nM in experiment [2] (GK-GKRP EC50 (NADPH-coupled)).
Taken in the same sequence, the figures for `CN(Cc1ccccc1)CC1CN(S(=O)(=O)c2cccs2)CCN1c1ccc(C(C)(O)C(F)(F)F)cc1` (mixture of isomers) [Example 62, 2-(4-(2-((benzyl(methyl)amino)methyl)-4-(2-thiophenylsulfonyl)-1-piperazinyl)phenyl)-1,1,1-trifluoro-2-propanol] were 1220 nM and 1010 nM.
For `CC(O)(c1ccc(N2CCN(S(=O)(=O)c3cccs3)CC2Cc2ccncc2)cc1)C(F)(F)F` (mixture of isomers) [Example 76, 1,1,1-trifluoro-2-(4-(2-(4-pyridinylmethyl)-4-(2-thiophenylsulfonyl)-1-piperazinyl)phenyl)-2-propanol trifluoroacetate], in that order: 522 nM and 207 nM.
Take `O=S(=O)(c1ccccc1)N1CCN(c2ccc(C(O)(C3CC3)C(F)(F)F)cc2)CC1` (racemic) [Example 15, 1-cyclopropyl-2,2,2-trifluoro-1-(4-(4-(phenylsulfonyl)-1-piperazinyl)phenyl)ethanol]: the EC50 is 2770 nM in experiment [1] (GK-GKRP EC50 (LC MS/MS)) and 2620 nM in experiment [2] (GK-GKRP EC50 (NADPH-coupled)).
Regarding `CC(O)(c1ccc(-c2ccc(S(=O)(=O)c3ccccc3)c(Cl)c2)nc1)C(F)(F)F` (racemic) [Example 18, 2-(6-(3-chloro-4-(phenylsulfonyl)phenyl)-3-pyridinyl)-1,1,1-trifluoro-2-propanol], the EC50 in experiment [1] (GK-GKRP EC50 (LC MS/MS)) stood at 3570 nM; in experiment [2] (GK-GKRP EC50 (NADPH-coupled)) it was 3750 nM.
As for `CC(O)(c1ccc(-c2ccc(S(=O)(=O)c3ccccc3)c(Cl)c2)cc1)C(F)(F)F` (racemic) [Example 19, 2-(3′-chloro-4′-(phenylsulfonyl)-4-biphenylyl)-1,1,1-trifluoro-2-propanol], the EC50 in experiment [1] (GK-GKRP EC50 (LC MS/MS)) came out at 4230 nM; in experiment [2] (GK-GKRP EC50 (NADPH-coupled)) it was 3580 nM.
As to `CC(C)(O)C#Cc1cc(-c2ccc(C(C)(O)C(F)(F)F)cc2)ccc1S(=O)(=O)c1ccccc1` (racemic) [Example 20, 2-methyl-4-(4-(phenylsulfonyl)-4′-(2,2,2-trifluoro-1-hydroxy-1-methylethyl)-3-biphenylyl)-3-butyn-2-ol], the values for the EC50 in experiment [1] (GK-GKRP EC50 (LC MS/MS)) and in experiment [2] (GK-GKRP EC50 (NADPH-coupled)) were 2250 nM and 1800 nM, respectively.
For `CC(O)(c1ccc(N2CCN(S(=O)(=O)c3ccccc3)CC2)cc1)C(F)(F)F` (racemic) [Example 24, 1,1,1-trifluoro-2-(4-(4-(phenylsulfonyl)-1-piperazinyl)phenyl)-2-propanol], the results for the EC50 in experiment [1] (GK-GKRP EC50 (LC MS/MS)) and in experiment [2] (GK-GKRP EC50 (NADPH-coupled)) were 3960 nM and 1840 nM, respectively.
`Cc1cccc(CC2CN(S(=O)(=O)c3cccs3)CCN2c2ccc(C(O)(C(F)(F)F)C(F)(F)F)cc2)c1` (racemic) [Example 42, 1,1,1,3,3,3-hexafluoro-2-(4-(2-(3-methylbenzyl)-4-(2-thiophenylsulfonyl)-1-piperazinyl)phenyl)-2-propanol hydrochloride]: the EC50 was 688 nM in experiment [1] (GK-GKRP EC50 (LC MS/MS)) and 724 nM in experiment [2] (GK-GKRP EC50 (NADPH-coupled)).
For `Cc1ccc(CC2CN(S(=O)(=O)c3cccs3)CCN2c2ccc(C(O)(C(F)(F)F)C(F)(F)F)cc2)cc1` (racemic) [Example 43, 1,1,1,3,3,3-hexafluoro-2-(4-(2-(4-methylbenzyl)-4-(2-thiophenylsulfonyl)-1-piperazinyl)phenyl)-2-propanol hydrochloride], the EC50 in experiment [1] (GK-GKRP EC50 (LC MS/MS)) worked out at 2620 nM; in experiment [2] (GK-GKRP EC50 (NADPH-coupled)), 2500 nM.
For `CC(O)(c1ccc(N2CCN(S(=O)(=O)c3cccs3)CC2CN2CC3CCC(C2)O3)cc1)C(F)(F)F` (racemic) [Example 46, 1,1,1-trifluoro-2-(4-(2-(8-oxa-3-azabicyclo[3.2.1]oct-3-ylmethyl)-4-(2-thiophenylsulfonyl)-1-piperazinyl)phenyl)-2-propanol], in that order: 178 nM and 154 nM.
On to `CC1(C#Cc2cc(C(C)(O)C(F)(F)F)ccc2N2CCN(S(=O)(=O)c3cccs3)CC2)COC1` (racemic) [Example 75, 1,1,1-trifluoro-2-(3-((3-methyl-3-oxetanyl)ethynyl)-4-(4-(2-thiophenylsulfonyl)-1-piperazinyl)phenyl)-2-propanol], for which the EC50 stood at 2800 nM in experiment [1] (GK-GKRP EC50 (LC MS/MS)) and 2900 nM in experiment [2] (GK-GKRP EC50 (NADPH-coupled)).
Taken in the same sequence, the figures for `CC(O)(c1ccc(N2CCN(S(=O)(=O)c3ccccc3)CC2)cc1)C(F)(F)F` (single isomer, unassigned) [Example 24 Peak #1, 1,1,1-trifluoro-2-(4-(4-(phenylsulfonyl)-1-piperazinyl)phenyl)-2-propanol] were 2070 nM and 2570 nM.
Taken in the same sequence, the figures for `C[C@H]1CN(S(=O)(=O)c2nccs2)CCN1c1ccc(C(C)(O)C(F)(F)F)cc1` (single isomer, unassigned) [Example 34 Peak #2] were 1920 nM and 1940 nM.
For `CC(O)(c1ccc(N2CCN(S(=O)(=O)c3cccs3)CC2CC2CCOCC2)cc1)C(F)(F)F` (single isomer, unassigned) [Example 37 Peak #1, 1,1,1-trifluoro-2-(4-(2-(tetrahydro-2H-pyran-4-ylmethyl)-4-(2-thiophenylsulfonyl)-1-piperazinyl)phenyl)-2-propanol], in that order: 162 nM and 111 nM.
Take `CC(O)(c1ccc(N2CCN(S(=O)(=O)c3cccs3)CC2CC2CCOCC2)cc1)C(F)(F)F` (single isomer, unassigned) [Example 37 Peak #2, 1,1,1-trifluoro-2-(4-(2-(tetrahydro-2H-pyran-4-ylmethyl)-4-(2-thiophenylsulfonyl)-1-piperazinyl)phenyl)-2-propanol]: the EC50 in experiment [1] (GK-GKRP EC50 (LC MS/MS)) was 128 nM; in experiment [2] (GK-GKRP EC50 (NADPH-coupled)) it was 124 nM.
For `C[C@H]1COCCN1CC1CN(S(=O)(=O)c2cccs2)CCN1c1ccc(C(C)(O)C(F)(F)F)cc1` (single isomer, unassigned) [Example 45 Peak #1], in that order: 62 nM and 52 nM.
Take `CC(O)(c1ccc(N2CCN(S(=O)(=O)c3cccs3)C[C@@H]2Cc2ccccc2)cc1)C(F)(F)F` (single isomer, unassigned) [Example 65 Peak #1]: the EC50 in experiment [1] (GK-GKRP EC50 (LC MS/MS)) was 643 nM; in experiment [2] (GK-GKRP EC50 (NADPH-coupled)), 367 nM.
Take `CC(O)(c1ccc(N2CCN(S(=O)(=O)c3cccs3)C[C@@H]2Cc2ccccc2)cc1)C(F)(F)F` (single isomer, unassigned) [Example 65 Peak #2]: the figures for the EC50 in experiment [1] (GK-GKRP EC50 (LC MS/MS)) and in experiment [2] (GK-GKRP EC50 (NADPH-coupled)) were 240 nM and 166 nM, respectively.
